From patent US6875578B2, “System for cell-based screening” (priority 1997, dated 2005)

Assays:
SNB-19 cells = experiment: High-content screen of paclitaxel-induced apoptosis, SNB-19 cells; type: cell-based; conditions: 26 h
Description: The cells chosen for this study were mouse connective tissue fibroblasts (L-929; ATCC CCL-1) and a highly invasive glioblastoma cell line (SNB-19; ATCC CRL-2219) (Welch et al., In Vitro Cell. Dev. Bid. 31:610, 1995). The day before treatment with an apoptosis inducing drug, 3500 cells were placed into each well of a 96-well plate and incubated overnight at 37° C. in a humidified 5% CO2 atmosphere. The following day, the culture medium was removed from each well and replaced with fresh medium containing various concentrations of paclitaxel (0-50 μM) from a 20 mM stock made in DMSO. The maximal concentration of DMSO used in these experiments was 0.25%. The cells were then incubated for 26 h as above. At the end of the paclitaxel treatment period, each well received fresh medium containing 750 nM MITOTRACKER™ Red (Molecular Probes; Eugene, Oreg.) and 3 μg/ml Hoechst 33342 DNA-binding dye (Molecular Probes) and was incubated as above for 20 mm. Each well on the plate was then washed with HBSS and fixed with 3.7% formaldehyde in HBSS for 15 mm at room temperature. […] The fluorescence signals from plates stored this way were stable for at least two weeks after preparation. As in the nuclear translocation assay, fluorescence reagents can be designed to convert this assay into a live cell high-content screen.
The fluorescence intensity of intracellular MITOTRACKER™ Red, Hoechst 33342, and BODIPY™ FL phallacidin was measured with the cell screening system as described supra. […]
A total of 50-250 cells were measured per image field. For each field of cells, the following calculations were performed: (1) The average nuclear area (μm^2) was calculated by dividing the total nuclear area in a field by the number of nuclei detected. (2) The average nuclear perimeter (μm) was calculated by dividing the sum of the perimeters of all nuclei in a field by the number of nuclei detected in that field. […] (3) The average nuclear brightness was calculated by dividing the integrated intensity of the entire field of nuclei by the number of nuclei in that field. […]

[1] = system: microtubule arrays (tubulin-GFP chimera); experiment: Microtubule disruption assay, LLCPK cells with tubulin-GFP biosensor; type: cell-based, pig; conditions: 10-500 nM, 12 hour time point
Description: For microtubule disruption assays, LLCPK cells stably transfected with a tubulin-GFP biosensor plasmid were plated on 96 well cell culture dishes at 50-60% confluence and cultured overnight at 37° C., 5% CO2. […] The cells were then observed with the cell screening system described above, at a 12 hour time point.

SMILES: CC(=O)O[C@H]1C(=O)[C@@]2(C)[C@H]([C@H](OC(=O)c3ccccc3)[C@]3(O)C[C@H](OC(=O)[C@H](O)[C@@H](NC(=O)c4ccccc4)c4ccccc4)C(C)=C1C3(C)C)[C@]1(OC(C)=O)CO[C@@H]1C[C@@H]2O [paclitaxel]
- mitochondrial potential (SNB-19 cells; 10 nM paclitaxel): minimal at the same concentration of paclitaxel
- concentration at which area, brightness, and fragmentation of the nucleus and actin polymerization values reached a maximum value (SNB-19 cells): 10 nM
- all the parameters measured at increasing concentrations (SNB-19 cells; >10 nM paclitaxel): approached control levels
- Response of microtubule arrays [1]: Stabilization
